Reference: patent publication US9463256B2, “Pretargeting kit, method and agents used therein” (KONINKLIJKE PHILIPS N.V., priority 2010, dated 2016)

Experiments:
[1] = Reactivity of tetrazines, competition experiment against reference tetrazine; assay type: physicochemical; conditions: reference 3-(5-acetamido-2-pyridyl)-6-(2-pyridyl)-1,2,4,5-tetrazine; reaction with 10b
Procedure: A competition experiment was performed to determine the reactivity ratio of a specific tetrazine and 3-(5-acetamido-2-pyridyl)-6-(2-pyridyl)-1,2,4,5-tetrazine (that was chosen as the reference tetrazine), in the inverse-electron demand Diels-Alder reaction with trans-cyclooct-4-ene-1-ol (minor isomer, 10b).
To acetonitrile (0.100 mL) was added 5 μL of a solution of the specific tetrazine in DMSO (25 mM) and 5 μL of a solution of the reference tetrazine in DMSO (25 mM). This mixture was diluted with water (0.9 mL), and the absolute amounts of both tetrazines were determined by LC-MS/PDA analysis. Subsequently, a solution of trans-cyclooct-4-ene-1-ol (minor isomer, 10b) in DMSO (25 μL 2.5 mM) was added, and the mixture was stirred for 5 min. Again, the absolute amounts of both tetrazines were determined by LC-MS/PDA analysis, and conversions for both tetrazines was calculated. From these conversions, the reactivity ratio of both tetrazines was determined.

[2] = Second order kinetic constants of the reactions between CC49-TCO constructs and ^177Lu-28; assay type: physicochemical; conditions: TCO conjugated to CC49, reaction with ^177Lu-28 in PBS, pH 7.4 at 37° C.
Procedure: Typically, 1 mg CC49 (5 mg/mL solution in PBS) was modified with 0.6 molar (for kinetic measurements) or 10 molar eq. (for in vivo studies) of TCO-NHS constructs in a total volume of 250 μL PBS. The pH was adjusted to 9 with 1 M sodium carbonate buffer. The reactions were carried out under agitation for 30 min at RT in the dark. Subsequently, the TCO-modified mAbs were extensively washed with PBS using Amicon Ultra-15 centrifugal devices. The numbers of TCO groups per antibody were determined with a tetrazine titration, outlined below.
Tetrazine-DOTA 28 was radiolabeled with carrier-added ^177Lu. mAb (25 μg) modified with ca. 0.6 molar eq. TCO was reacted with 3 molar eq. of ^177Lu-28 (0.5 nM). mAb (25 μg) modified with ca. 10 molar eq. TCO was reacted with 15 molar eq. of ^177Lu-28 (2.5 nM). The reactions were carried out in 50 μL PBS pH 7.4 at 37° C. for 10 min. The reaction mixtures were analyzed by SDS-PAGE and phosphor imager and the reaction yields were determined from the radioactivity in the bands corresponding to the mAb. The counts were quantified with AIDA Image Analyzer software (Raytest).
Tetrazine-DOTA 28 was radiolabeled with carrier-added ^177Lu at a specific activity of 3 MBq/μg. ^177Lu-28 (33 nM) was reacted with increasing concentrations of CC49 modified with 1 eq. of TCO (0.33, 1, and 1.67 μM) in 200 μL PBS, pH 7.4 at 37° C. for 5 min. At selected times (15, 30, 45, 60, 90, 120, 180, and 300 sec) a 20 μL sample was withdrawn and quenched with tetrazine 6 (FIG. 5; described in Rossin et al. Angew Chem Int Ed 2010, 49, 3375) (1.5 μL, 5 mg/mL in DMF). Aliquots of each mixture were analyzed by SDS-PAGE and phosphor imager and the cycloaddition yields were determined from the radioactivity in the bands corresponding to the mAb. The counts were quantified with AIDA Image Analyzer software (Raytest).
The newly synthesized TCO constructs were evaluated with respect to their reactivity towards tetrazine 28. The procedures are described in Example 5.

[3] = Trans-cyclooctene stability in vivo (blood samples reacted with excess ^111In-tetrazine 28); parameters: species or system mice; conditions: tumor-free mice, up to 4 days post injection
Procedure: Tumor-free mice (n=3 per group) were injected intravenously with CC49-PEG10-TCO-O major (CC49-23a; 8.4 TCO per CC49; 300 μg/100 μL per mouse), CC49-PEG10-TCO-C minor (CC49-27b; 3.3 TCO per CC49, […]), and CC49-TCO-O major without spacer (CC49-20a; 8.0 TCO per CC49, 300 μg/100 μL per mouse). At selected time points (from 1 hour up to 4 days post injection) blood samples were withdrawn from the vena saphena and collected in vials containing heparin. The blood samples were weighed and an excess ^111In-tetrazine 28 was added. After 20 min incubation at 37° C., blood aliquots were 10-fold diluted with PBS and analyzed by SDS-PAGE. The cycloaddition yields were determined from the radioactivity in the bands corresponding to the mAb and the counts were quantified with AIDA Image Analyzer software. The amount of mAb present in blood at each time point (% ID/g blood) was evaluated in three separate groups of mice (n=3), which were injected with the corresponding ^125I—CC49-TCO (300 μg/100 μL per mouse, ca. 0.2 MBq). The data, corrected for mAb clearance, were normalized to 100% ID TCO at t=0.
This experiment was carried out to expand the series of in vivo TCO stability measurements described in Example 6. […] In the new experiment, following the same procedure, we tested the in vivo stability of a CC49-bound TCO minor without PEG spacer (20b, 6.9 equivalents bound).

[4] = In vitro reaction yields of CC49-bound TCO with tetrazine probe 28 at low concentration; assay type: physicochemical; conditions: TCO conjugated to CC49; 1 min at 37° C. in PBS; micromolar concentrations and lower
Procedure: To this aim we used a TCO major 20a (k2=19600±1400 M^−1s^−1) and a TCO minor 20b (k2=136700±2300 M^−1s^−1) conjugated to CC49 (6.1 and 6.6 TCOs per molecule for major and minor, respectively). The two mAb solutions were diluted in PBS to obtain TCO concentrations ranging from 1×10^−5M to 1×10^−8M and were reacted with carrier-added ^177Lu-tetrazine (1 eq. with respect to mAb) for 1 min at 37° C. Aliquots of the reaction mixtures (20 μl) where then quenched with an excess of tetrazine 6, added with non-reducing sample buffer and analyzed by SDS-PAGE. The cycloaddition yields were determined from the radioactivity in the bands corresponding to the mAb and the counts were quantified with the AIDA Image Analyzer software. The experiments were repeated in triplicate. As expected for a bimolecular reaction, a decrease in the concentration of the two reactive species in solution translates into lower reaction yields after 1 min incubation (FIG. 18).

SMILES: Cc1nnc(-c2ccccn2)nn1 [compound 40, 3-(2-Pyridyl)-6-methyl-1,2,4,5-tetrazine]
- k2/k2 ref [1]: 0.25

SMILES: O=C(CCOCCOCCOCCOCCOCCOCCOCCOCCOCCOCCOCCOCCNC(=O)c1ccc(COC2CC/C=C/CCC2)cc1)ON1C(=O)CCC1=O (stereo not shown) [23a, (E-major)-2,5-Dioxopyrrolidin-1-yl 1-(4-((cyclooct-4-en-1-yloxy)methyl)phenyl)-1-oxo-5,8,11,14,17,20,23,26,29,32,35,38-dodecaoxa-2-azahentetracontan-41-oate]
- Second order kinetic constant, PEG10 Spacer [2]: (23a) 16500 ± 1400 M^−1s^−1
- in vivo stability of CC49-bound TCO (reactive TCO in blood, corrected for mAb clearance) [3]: unstable in vivo

SMILES: O=C(ON1C(=O)CCC1=O)c1ccc(COC2CC/C=C/CCC2)cc1 (stereo not shown) [20b, (E-minor)-2,5-Dioxopyrrolidin-1-yl 4-((cyclooct-4-enyloxy)methyl)benzoate]
- in vivo stability of CC49-bound TCO (reactive TCO in blood, corrected for mAb clearance) [3]: only slowly degrade in vivo
- reaction yields with ^177Lu-tetrazine versus equatorial TCO 20a [4]: significantly higher

SMILES: CCCC(=O)Nc1ccc(-c2nnc(-c3ccc(C(F)(F)F)cn3)nn2)nc1 [compound 35, 3-(5-Butyramido-2-pyridyl)-6-(5-(trifluoromethyl)-2-pyridyl)-1,2,4,5-tetrazine]
- k2/k2 ref [1]: 1.84

SMILES: CCCC(=O)Nc1ccc(-c2nnc(-c3ccc(F)cn3)nn2)nc1 [compound 38, 3-(5-Fluoro-2-pyridyl)-6-(5-butanamido-2-pyridyl)-1,2,4,5-tetrazine]
- k2/k2 ref [1]: 0.95

SMILES: c1cc(-c2nnc(-c3ccncc3)nn2)ccn1 [compound 42, 3,6-Bis(4-pyridyl)-1,2,4,5-tetrazine]
- k2/k2 ref [1]: 0.83

SMILES: O=C(CCOCCOCCOCCOCCOCCOCCOCCOCCOCCOCCOCCOCCNC(=O)c1ccc(NC(=O)OC2CC/C=C/CCC2)cc1)ON1C(=O)CCC1=O (stereo not shown) [27b, (E-minor)-2,5-dioxopyrrolidin-1-yl 1-(4-(((cyclooct-4-en-1-yloxy)carbonyl)amino)phenyl)-1-oxo-5,8,11,14,17,20,23,26,29,32,35,38-dodecaoxa-2-azahentetracontan-41-oate]
- Second order kinetic constant, PEG10 Spacer [2]: (27b) 111600 ± 1800 M^−1s^−1
- in vivo stability of CC49-bound TCO (reactive TCO in blood, corrected for mAb clearance) [3]: unstable in vivo
